Test results as given in the supplement of paper PMC10307832.

Assays:
Test in all cases: relative viability (nuclei count vs DMSO), 5 days (fraction); higher = more cells survive
Linsitinib + Alpelisib = compound: C[C@]1(O)C[C@@H](c2nc(-c3ccc4ccc(-c5ccccc5)nc4c3)c3c(N)nccn32)C1 [Linsitinib] + Cc1nc(NC(=O)N2CCC[C@H]2C(N)=O)sc1-c1ccnc(C(C)(C)C(F)(F)F)c1 [Alpelisib] (partner 2 µM)
In short: (§1)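 Relative viability equals treated-well nuclei counts divided by vehicle-well nuclei counts. Counts came from 4× images of lung cancer cell lines grown in 1536-well plates for 5 days after pin-tool dosing on the day after seeding. Dosing used one drug alone or a fixed anchor-drug dose plus five library-drug doses (not always all listed) in √10 steps, and values are medians of duplicate plates.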

Ispinesib + Pictilisib = compound: Cc1ccc(C(=O)N(CCCN)[C@@H](c2nc3cc(Cl)ccc3c(=O)n2Cc2ccccc2)C(C)C)cc1 [Ispinesib] + CS(=O)(=O)N1CCN(Cc2cc3nc(-c4cccc5[nH]ncc45)nc(N4CCOCC4)c3s2)CC1 [Pictilisib] (partner 1 µM)
In short: as §1

Linsitinib + Phenformin = compound: C[C@]1(O)C[C@@H](c2nc(-c3ccc4ccc(-c5ccccc5)nc4c3)c3c(N)nccn32)C1 [Linsitinib] + N=C(N)NC(=N)NCCc1ccccc1 [Phenformin] (partner 250 µM)
In short: as §1

Ispinesib + OSI-027 = compound: Cc1ccc(C(=O)N(CCCN)[C@@H](c2nc3cc(Cl)ccc3c(=O)n2Cc2ccccc2)C(C)C)cc1 [Ispinesib] + COc1cccc2cc(-c3nc([C@H]4CC[C@H](C(=O)O)CC4)n4ncnc(N)c34)[nH]c12 [OSI-027] (partner 0.5 µM)
In short: as §1

Row | Cell Line | relative viability (Linsitinib + Alpelisib; first compound 0.01 µM) | relative viability (Linsitinib + Alpelisib; first compound 0.03162 µM) | relative viability (Linsitinib + Alpelisib; first compound 0.1 µM) | relative viability (Linsitinib + Alpelisib; first compound 0.3162 µM) | relative viability (Linsitinib + Alpelisib; first compound 1 µM) | relative viability (Ispinesib + Pictilisib; first compound 0.001 µM) | relative viability (Ispinesib + Pictilisib; first compound 0.003162 µM) | relative viability (Ispinesib + Pictilisib; first compound 0.01 µM) | relative viability (Ispinesib + Pictilisib; first compound 0.03162 µM) | relative viability (Ispinesib + Pictilisib; first compound 0.1 µM) | relative viability (Linsitinib + Phenformin; first compound 0.01 µM) | relative viability (Linsitinib + Phenformin; first compound 0.03162 µM) | relative viability (Linsitinib + Phenformin; first compound 0.1 µM) | relative viability (Linsitinib + Phenformin; first compound 0.3162 µM) | relative viability (Linsitinib + Phenformin; first compound 1 µM) | relative viability (Ispinesib + OSI-027; first compound 0.001 µM) | relative viability (Ispinesib + OSI-027; first compound 0.003162 µM) | relative viability (Ispinesib + OSI-027; first compound 0.01 µM) | relative viability (Ispinesib + OSI-027; first compound 0.03162 µM) | relative viability (Ispinesib + OSI-027; first compound 0.1 µM)
1 | NCI-H2126 | 0.726 | 0.801 | 0.743 | 0.682 | 0.717 | 0.505 | 0.56 | 0.563 | 0.476 | 0.39 | 0.531 | 0.512 | 0.484 | 0.338 | 0.319 | 0.757 | 0.894 | 0.674 | 0.664 | 0.63
2 | 201T | 1.01 | 1.04 | 1.1 | 1.06 | 1.04 | 0.724 | 0.733 | 0.677 | 0.643 | 0.652 | 0.405 | 0.475 | 0.434 | 0.449 | 0.338 | 0.828 | 0.952 | 0.834 | 0.56 | 0.181
3 | HCC-78 | 0.413 | 0.439 | 0.26 | 0.312 | 0.261 | 0.223 | 0.198 | 0.235 | – | 0.247 | 0.551 | 0.717 | 0.565 | 0.701 | 0.621 | 0.439 | 0.448 | 0.368 | 0.345 | 0.318
4 | NCI-H358 | 0.794 | 0.804 | 0.734 | 0.471 | 0.479 | 0.298 | 0.359 | 0.377 | 0.227 | 0.245 | 0.304 | 0.273 | 0.306 | 0.228 | 0.207 | 0.999 | 0.837 | 1.02 | 0.392 | 0.129
5 | SK-LU-1 | 0.975 | 0.908 | 1.03 | – | 1.09 | 0.556 | 0.65 | 0.674 | 0.301 | 0.354 | 0.558 | – | 0.588 | 0.391 | 0.325 | 0.395 | 0.386 | 0.445 | 0.216 | 0.199
6 | H3255 | 0.605 | 0.858 | 0.732 | 0.591 | 0.771 | 0.456 | 0.431 | 0.471 | 0.335 | 0.345 | 0.342 | 0.354 | 0.392 | 0.366 | 0.375 | 0.577 | 0.574 | 0.588 | 0.552 | 0.414
7 | LOU-NH91 | 0.743 | 0.656 | 0.7 | 0.76 | 0.602 | 0.482 | 0.54 | 0.508 | 0.427 | 0.256 | 0.739 | 0.714 | 0.722 | 0.651 | 0.632 | 0.72 | 0.776 | 0.83 | 0.59 | 0.236
8 | NCI-H1666 | 0.847 | 0.869 | 0.769 | 0.452 | 0.477 | 0.42 | 0.404 | 0.42 | 0.302 | 0.312 | 0.539 | 0.394 | 0.534 | 0.314 | 0.511 | 0.749 | 0.889 | 0.864 | 0.712 | 0.476
9 | SK-MES-1 | 0.9 | 1.02 | 0.907 | 0.814 | 0.854 | 0.374 | 0.334 | 0.447 | 0.35 | 0.24 | 0.645 | 0.658 | 0.645 | 0.491 | 0.479 | 0.732 | 0.601 | 0.628 | 0.182 | 0.229
10 | NCI-H2023 | 0.533 | 0.426 | 0.502 | 0.425 | 0.392 | 0.271 | 0.237 | 0.273 | 0.0793 | 0.125 | 0.382 | 0.349 | 0.464 | 0.296 | 0.297 | 0.467 | 0.421 | 0.404 | 0.163 | 0.143
11 | COR-L 105 | 0.843 | 0.869 | 1.01 | 0.761 | 0.829 | 0.448 | 0.393 | 0.257 | 0.243 | 0.258 | 0.554 | 0.451 | 0.49 | 0.478 | 0.406 | 0.769 | 0.603 | 0.585 | 0.266 | 0.305
12 | NCI-H838 | 1 | 0.979 | 1.05 | 0.853 | 0.755 | 0.451 | 0.494 | 0.544 | 0.392 | 0.257 | 0.528 | 0.487 | 0.462 | – | 0.395 | 0.425 | 0.359 | 0.539 | 0.436 | 0.197
13 | SW 1573 | 0.677 | 0.831 | 0.761 | 0.655 | 0.654 | 0.483 | 0.469 | 0.715 | 0.474 | 0.232 | 0.359 | 0.335 | 0.311 | 0.244 | 0.203 | 0.622 | 0.645 | 0.526 | 0.162 | 0.186
